The record followed here is patent publication US4767718A, “Fluorescent opioid reagents and methods of use thereof in the detection of opioid receptors” (Southern Illinois University Foundation, priority 1984, dated 1988).

Entries after “also recorded” stand apart in the source; their conditions may differ. Like-named read-outs stand apart in the source and are kept apart here.

For series [1], the target named is T1, opioid receptor (rat brain synaptosomal plasma membranes) (Rattus norvegicus, UniProt P33535).
T1 construct: from rat brain synaptosomal plasma membranes; from tissue; host or cells: rat brain synaptosomal plasma membranes
Put plainly: displacement of ^3H-dihydromorphine (^3H-DHM) from rat brain synaptosomal plasma membranes. To be noted: for Hill coefficient: ^3H-DHM displacement; for binding activity for use in detection and quantification of receptor sites: synaptosomal membranes, in words. Type of series: binding.

The target in series [2] is T2, opioid receptor sites, ^3H-DHM indicator ligand (Rattus norvegicus, UniProt P33535).
T2 construct: from rat brain synaptosomal plasma membranes; from tissue; host or cells: rat brain synaptosomal plasma membranes (inferred from the sister test; b86 says only 'a substrate')
In words: site selectivity analysis (Terenius and Wahlstrom), displacement of labeled ^3H-DHM in presence of cold DALE. Type of series: binding.
From the text: (§1) In FIG. 1 it will be noted that compounds which displace the two indicator ligands differently provide a curve which is convex towards the axis of the labeled indicator ligand which is less favorably displaced.

The target of series [3] is T3, opioid receptor sites, ^3H-DALE indicator ligand (Rattus norvegicus, UniProt P33533).
T3 construct: from rat brain synaptosomal plasma membranes; from tissue; host or cells: rat brain synaptosomal plasma membranes (inferred from the sister test; b86 says only 'a substrate')
In words: site selectivity analysis (Terenius and Wahlstrom), displacement of labeled ^3H-DALE in presence of cold DHM. Type of series: binding.
From the text: as §1

In series [4] the test system is guinea pig ileum longitudinal muscle. Put plainly: electrically stimulated guinea pig ileum longitudinal muscle preparation. Conditions: for persistence of antagonist effect on washing of ileum: after washing. The procedure:
6-FN was tested for activity on an electrically stimulated guinea pig ileum longitudinal muscle preparation. In this test, a specimen of guinea pig ileum was stretched between two wires in a nutrient solution (2.5 mil.) and stimulated supramaximally at 0.1 Hz. In the absence of opioid agonists and antagonists electrical stimulation of the muscle results in contraction.

A short description of series [5]: fluorescence and absorption properties. It counts as physicochemical. Conditions: for emission maximum / excitation maximum: pH 7 phosphate buffer, 10^-6 M solution. The procedure:
The container was wrapped in aluminium foil. Thereafter, portions of ethyl alcohol and water were added to the reaction mixture.

A short description of series [6]: hygroscopicity of sample submitted for elemental analysis. Type of series: physicochemical.
Setting [7] is: determined graphically, rat brain synaptosomal plasma membranes.

T1 sequence (P33535 whole entry): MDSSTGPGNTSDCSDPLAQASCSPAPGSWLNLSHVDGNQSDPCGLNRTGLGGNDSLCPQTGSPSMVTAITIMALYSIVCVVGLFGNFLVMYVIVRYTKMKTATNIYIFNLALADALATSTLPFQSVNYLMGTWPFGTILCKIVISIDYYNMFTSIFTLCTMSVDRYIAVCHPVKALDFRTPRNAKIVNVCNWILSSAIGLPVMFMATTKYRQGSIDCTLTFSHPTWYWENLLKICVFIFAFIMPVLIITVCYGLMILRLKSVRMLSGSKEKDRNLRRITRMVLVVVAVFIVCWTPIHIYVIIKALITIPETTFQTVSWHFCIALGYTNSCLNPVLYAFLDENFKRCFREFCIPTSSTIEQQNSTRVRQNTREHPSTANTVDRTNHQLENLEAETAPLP
T2 sequence (P33535 whole entry): as above
T3 sequence (P33533 whole entry): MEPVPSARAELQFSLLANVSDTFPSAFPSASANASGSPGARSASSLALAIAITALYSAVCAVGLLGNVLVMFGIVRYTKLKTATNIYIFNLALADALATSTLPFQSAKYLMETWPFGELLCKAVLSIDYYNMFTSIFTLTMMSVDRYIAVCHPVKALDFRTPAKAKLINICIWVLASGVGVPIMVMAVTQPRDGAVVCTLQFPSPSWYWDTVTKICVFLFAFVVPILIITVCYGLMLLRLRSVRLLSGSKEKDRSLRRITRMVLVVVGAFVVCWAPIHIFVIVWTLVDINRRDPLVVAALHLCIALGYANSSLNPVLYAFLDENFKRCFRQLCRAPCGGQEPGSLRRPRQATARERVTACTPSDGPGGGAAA

In general, Hill coefficient refers to the slope factor of the fitted curve. Usually IC50 stands for the concentration that inhibits the measured activity by half. As to `C=CCN1CC[C@]23c4c5ccc(O)c4O[C@H]2C(=NNC(=S)Nc2ccc4c(c2)C(=O)OC42c4ccc(O)cc4Oc4cc(O)ccc42)CC[C@@]3(O)[C@H]1C5` [6-FN, 1-(N)-Fluoresceinyl Naloxone Thiosemicarbazone], in series [1], the Hill coefficient turned out to be 0.671; the “binding activity for use in detection and quantification of receptor sites” value (from here on “binding activity for use”) is on record as “sufficient binding activity”. In series [1] (setting [7]), this compound returned an IC50 of 20 nM. In addition, the concentration for half-maximal inhibition (IC50) in series [2] is 12 nM. In addition, the “site selectivity compared with naloxone (FIG. 1)” value in series [2] (percent bound DALE* versus percent bound DHM*, in words) was “show clearly the difference between 6-FN and naloxone with respect to site selectivity”. The IC50 in series [3] is 17 nM. The “agonist activity of 6-FN” value in series [4] (10^-6 M 6-FN, FIG. 2) was “slight agonist effect; also recorded: partial agonist activity”. For the same compound, in series [4], the “persistence of antagonist effect on washing of ileum” value is recorded as “did not readily eliminate the antagonist effect”. In addition, the “antagonist effect with respect to normorphine” value in series [4] (final 6-FN concentration 10^-7 M, prior to normorphine) is listed as “antagonist effect; also recorded: significantly inhibited the agonist effect of normorphine”. Besides, the “antagonist effect compared with inhibiting effect of naloxone” value in series [4] (inhibition of normorphine agonist effect) is on record as “ten times less effective”. In series [5], this compound had a fluorescence polarization of 0.038, an emission maximum of 513 nm and an excitation maximum of 493 nm. Also, the absorption maximum in series [5] (10^-5 M solution, phosphate buffer) came to 493 nm. For the same compound, in series [5] (10^-5 M solution, phosphate buffer, 493 nm), the “absorbance A at absorption maximum” value is reported as 0.410. For the same compound, the “quantum yield compared to free fluorescein” value in series [5] (10^-9 M) was “about 67%”.

Regarding `O=C1OC2(c3ccc(O)cc3Oc3cc(O)ccc32)c2ccc(NC(=S)NN=C3CC[C@@]4(O)[C@H]5Cc6ccc(O)c7c6[C@@]4(CCN5CC4CC4)[C@H]3O7)cc21` [6-FNX, 1-(N)-fluoresceinyl naltrexone thiosemicarbazone], in series [1], the concentration for half-maximal inhibition (IC50) is 5 nM; the Hill coefficient worked out at 0.675; the “binding activity for use” value is given as “sufficient binding activity”.

For `CN1CC[C@]23c4c5ccc(O)c4O[C@H]2C(=NNC(=S)Nc2ccc4c(c2)C(=O)OC42c4ccc(O)cc4Oc4cc(O)ccc42)CC[C@@]3(O)[C@H]1C5` [6-FO, 1-(N)-Fluoresceinyl Oxymorphone thiosemicarbazone], in series [1], the Hill coefficient is given as 0.989; the “binding activity for use” value is “sufficient binding activity”. For the same compound, the concentration for half-maximal inhibition (IC50) in series [1] (setting [7]) amounted to 20 nM. In series [6], the hygroscopicity result was “very hygroscopic”.

With `C=CCN1CC[C@]23c4c5ccc(O)c4O[C@H]2C(=NNC(=S)Nc2ccc4c(c2)C(=O)OC42c4ccc(N(C)C)cc4Oc4cc(N(C)C)ccc42)CC[C@@]3(O)[C@H]1C5` [6-RN, 1-(N)-tetramethylrhodaminyl-B-naloxone Thiosemicarbazone], in series [1], the Hill coefficient came to 1.09; the “binding activity for use” value was “sufficient binding activity”.

In the case of `O=C1OC2(c3ccc(O)cc3Oc3cc(O)ccc32)c2ccccc21` [free fluorescein, fluorescein, reference compound], in series [5], the fluorescence polarization was 0.022, the emission maximum is listed as 510-511 nm and the excitation maximum worked out at 493 nm.

Regarding `C=CCN1CC[C@]23c4c5ccc(O)c4O[C@H]2C(=O)CC[C@@]3(O)[C@H]1C5` [naloxone, reference compound], the “reversal of 6-FN partial agonist activity by naloxone” value in series [4] (10^-7 M naloxone versus 10^-6 M 6-FN) is listed as “reversible”. Besides, the “antagonist effect of naloxone with respect to 6-FN” value in series [4] (FIG. 2 legend) was “antagonist effect”. The “persistence of antagonist effect on washing of ileum” value in series [4] is “similar”.

For the compound `Oc1ccc2c3c1O[C@H]1[C@@H](O)C=C[C@H]4[C@@H](C2)NCC[C@@]341` [normorphine, reference compound], the “agonist effect, inhibition of contraction of ileum” value in series [4] (normorphine 25 microliters, 10^-7 M) is “agonist effect; also recorded: substantially inhibited contraction of the muscle”.
